From US8815879B2, “Substituted 4-(selenophen-2(or-3)-ylamino)pyrimidine compounds and methods of use thereof” (Kasina Laila Innova Pharmaceuticals Private Limited, priority 2010, dated 2014)
Where a name gives a salt, the structure may show the parent alone. Read-outs that look alike come from different tables or passages of the source.

What was measured:
[1] = system: human colorectal carcinoma HT29 cells; test: MTT based cell proliferation assay, HT29; settings: for IC50: read-out: Cell Proliferation Inhibition in HT29 (Colon carcinoma), IC50; for inhibition at 10 µg/mL: read-out: Cell Proliferation Inhibition in HT29 (Colon carcinoma), % at highest screening dose
Experimental: (§1) MTT [3-(4,5-dimethylthiazol-2-yl)-2,5-diphenyltetrazolium bromide] incorporation based cell proliferation assay was performed using standard procedure. […] The assay was carried out according to the instructions provided by the vendor. […] Vehicle control culture wells received only a maximum of 0.5% DMSO. Thereafter, 0.5 mg/ml of MTT reagent was added to each well and the microplate was incubated further for 4 h at 37° C. in presence of 5% CO2. Finally, the cells were solubilized by adding solubilizing solution and allowed to incubate at 37° C. overnight. After complete solubilization of the formazan crystals the absorbance was read at 540 nm in a microplate reader (BioRad, USA).
(§2) The evaluation of cell proliferation inhibitory activities of the compounds was done in two phases—(1) Screening, and (2) half-maximal inhibitory concentration (IC50) determination. In the screening phase, the cells were treated with three different concentrations e.g. 1, 5 and 10 μg/ml.

[2] = system: human lung carcinoma A549 cells; test: MTT based cell proliferation assay, A549; settings: for IC50 / inhibition at 10 µg/mL: Homo sapiens, A549, 72 h; for IC50: read-out: Cell Proliferation Inhibition in A549 (Lung carcinoma), IC50; for inhibition at 10 µg/mL: read-out: Cell Proliferation Inhibition in A549 (Lung carcinoma), % at highest screening dose
Experimental: as §1, §2

[3] = system: human prostate DU145 cells; test: MTT based cell proliferation assay, DU145; settings: for IC50: read-out: Cell Proliferation Inhibition in DU145 (Prostate carcinoma), IC50; for inhibition at 10 µg/mL: read-out: Cell Proliferation Inhibition in DU145 (Prostate carcinoma), % at highest screening dose
Experimental: as §1, §2

Compound | inhibition at 10 µg/mL [2] | inhibition at 10 µg/mL ([3]; Homo sapiens, DU-145, 72 h) | inhibition at 10 µg/mL ([1]; Homo sapiens, HT-29, 72 h) | also measured
COc1cc2ncnc(Nc3cc(C(C)(C)C)[se]c3C(N)=O)c2cc1OCCCN1CCOCC1 (as salt: HCl) [Compound 3, 3-(6-(3-morpholinopropoxy)-7-methoxyquinazolin-4-ylamino)-5-tert-butylselenophene-2-carboxamide] |  |  |  | melting point: 262 to 264 °C
COc1cc2ncnc(Nc3cc(C(C)(C)C)[se]c3[N+](=O)[O-])c2cc1OCCCN1CCOCC1 (as salt: HCl) [Compound 4, [5-(tert-butyl)-2-nitroselenophen-3-yl][7-methoxy-6-(3-morpholino-propoxy)quinazolin-4-yl]amine] |  |  |  | melting point: 240 to 242 °C
COc1cc2c(Nc3cc(C(C)(C)C)[se]c3C(N)=O)ncnc2cc1OCCCN1CCOCC1 (as salt: HCl) [Compound 5, 3-(7-(3-morpholinopropoxy)-6-methoxyquinazolin-4-ylamino)-5-tert-butylselenophene-2-carboxamide] |  |  |  | melting point: 262 to 264 °C
COCCOc1cc2ncnc(Nc3cc(C(C)(C)C)[se]c3C(N)=O)c2cc1OCCOC (as salt: HCl) [Compound 6, 3-(6,7-bis(2-methoxyethoxy)quinazolin-4-ylamino)-5-tert-butylselenophene-2-carboxamide] |  |  |  | melting point: 224 to 226 °C
COc1cc2ncnc(Nc3cc(-c4ccccc4)[se]c3C(N)=O)c2cc1OCCCN1CCOCC1 (as salt: HCl) [Compound 7, 3-(6-(3-morpholinopropoxy)-7-methoxyquinazolin-4-ylamino)-5-phenyl-selenophene-2-carboxamide] |  |  |  | melting point: 266 to 270 °C
CC(C)(C)c1cc(Nc2ncnc3ccc(N)cc23)c(C(N)=O)[se]1 (as salt: HCl) [Compound 8, 3-(6-aminoquinazolin-4-ylamino)-5-tert-butylselenophene-2-carboxamide] |  |  |  | melting point: 170 to 172 °C
CC(C)(C)c1cc(Nc2ncnc3ccc(NC(=O)CCl)cc23)c(C(N)=O)[se]1 (as salt: HCl) [Compound 9, 3-(6-(2-chloroacetamido)quinazolin-4-ylamino)-5-tert-butylselenophene-2-carboxamide] |  |  |  | melting point: 276 to 278 °C
COC(=O)c1cc(Nc2ncnc3cc(OC)c(OCCCN4CCOCC4)cc23)c(C)[se]1 (as salt: HCl) [Compound 10, methyl 4-(6-(3-morpholinopropoxy)-7-methoxyquinazolin-4-ylamino)-5-methylselenophene-2-carboxylate] |  |  |  | melting point: 198 to 200 °C
COc1cc2c(Nc3cc(C(C)(C)C)[se]c3C(N)=O)ncnc2c(OC)c1OC [Compound 2, 3-(6,7,8-trimethoxyquinazolin-4-ylamino)-5-tert-butylselenophene-2-carboxamide] |  |  |  | IC50 ([1]; Homo sapiens, HT-29, 72 h): 19.3 µM; IC50 [2]: 31.1 µM; IC50 ([3]; Homo sapiens, DU-145, 72 h): 5.98 µM
COc1cc2ncnc(Nc3cc(C(C)(C)C)[se]c3C(N)=O)c2cc1OCCCN1CCOCC1 [Compound 3, 3-(6-(3-morpholinopropoxy)-7-methoxyquinazolin-4-ylamino)-5-tert-butylselenophene-2-carboxamide] |  |  |  | IC50 ([1]; Homo sapiens, HT-29, 72 h): 5.12 µM; IC50 [2]: 6.71 µM; IC50 ([3]; Homo sapiens, DU-145, 72 h): 7.39 µM
COc1cc2ncnc(Nc3cc(C(C)(C)C)[se]c3[N+](=O)[O-])c2cc1OCCCN1CCOCC1 [Compound 4, [5-(tert-butyl)-2-nitroselenophen-3-yl][7-methoxy-6-(3-morpholino-propoxy)quinazolin-4-yl]amine] | 10.4% | 9.85% |  | IC50 ([1]; Homo sapiens, HT-29, 72 h): 19.3 µM
COc1cc2c(Nc3cc(C(C)(C)C)[se]c3C(N)=O)ncnc2cc1OCCCN1CCOCC1 [Compound 5, 3-(7-(3-morpholinopropoxy)-6-methoxyquinazolin-4-ylamino)-5-tert-butylselenophene-2-carboxamide] |  |  |  | IC50 ([1]; Homo sapiens, HT-29, 72 h): 4.07 µM; potency in vitro compared to gefitinib (Iressa), HT29 ([1]; ratio of IC50 values): several times better potency; IC50 [2]: 4.6 µM; potency in vitro compared to gefitinib (Iressa), A549 ([2]; ratio of IC50 values): approximately four times; IC50 ([3]; Homo sapiens, DU-145, 72 h): 3.9 µM; potency in vitro compared to gefitinib (Iressa), DU145 ([3]; ratio of IC50 values): several times better potency
COCCOc1cc2ncnc(Nc3cc(C(C)(C)C)[se]c3C(N)=O)c2cc1OCCOC [Compound 6, 3-(6,7-bis(2-methoxyethoxy)quinazolin-4-ylamino)-5-tert-butylselenophene-2-carboxamide] | 5.09% | 39.7% | 86.4% | 
COc1cc2ncnc(Nc3cc(-c4ccccc4)[se]c3C(N)=O)c2cc1OCCCN1CCOCC1 [Compound 7, 3-(6-(3-morpholinopropoxy)-7-methoxyquinazolin-4-ylamino)-5-phenyl-selenophene-2-carboxamide] |  |  | 85.8% | IC50 [2]: 6.08 µM; IC50 ([3]; Homo sapiens, DU-145, 72 h): 5.84 µM
CC(C)(C)c1cc(Nc2ncnc3ccc(N)cc23)c(C(N)=O)[se]1 [Compound 8, 3-(6-aminoquinazolin-4-ylamino)-5-tert-butylselenophene-2-carboxamide] | 7.6% | 15.7% | 81.9% | 
CC(C)(C)c1cc(Nc2ncnc3ccc(NC(=O)CCl)cc23)c(C(N)=O)[se]1 [Compound 9, 3-(6-(2-chloroacetamido)quinazolin-4-ylamino)-5-tert-butylselenophene-2-carboxamide] | 0.19% |  |  | IC50 ([1]; Homo sapiens, HT-29, 72 h): 9.24 µM; IC50 ([3]; Homo sapiens, DU-145, 72 h): 8.51 µM
COC(=O)c1cc(Nc2ncnc3cc(OC)c(OCCCN4CCOCC4)cc23)c(C)[se]1 [Compound 10, methyl 4-(6-(3-morpholinopropoxy)-7-methoxyquinazolin-4-ylamino)-5-methylselenophene-2-carboxylate] | 10.3% | 21.4% | 6.11% | 
COc1cc2ncnc(Nc3cc(C(N)=O)[se]c3C)c2cc1OCCCN1CCOCC1 [Compound 11, 4-(6-(3-morpholinopropoxy)-7-methoxyquinazolin-4-ylamino)-5-methylselenophene-2-carboxamide] | 16% | 5.15% | 7.41% | 
CC(C)(C)c1cc(Nc2ncnc3ncccc23)c(C(N)=O)[se]1 [Compound 12, 5-tert-butyl-3-(pyridino[2,3-d]pyrimidin-4-ylamino)selenophene-2-carboxamide] | 7% | 9.18% | 6.75% | 
CCc1c(C)sc2ncnc(Nc3cc(C(C)(C)C)[se]c3C(N)=O)c12 [Compound 13, 3-(5-ethyl-6-methylthiopheno[2,3-d]pyrimidin-4-ylamino)-5-tert-butylselenophene-2-carboxamide] | 5.68% | 8.49% | 30.2% | 
CC(C)(C)c1cc(Nc2ncnc3cc(C(C)(C)C)[se]c23)c(C(N)=O)[se]1 [Compound 18, 3-(6-tert-butylselenopheno[3,2-d]pyrimidin-4-ylamino)-5-tert-butylselenophene-2-carboxamide] | 2.18% | 7.87% | 36.4% | 
CCc1c(C)[se]c2ncnc(Nc3cc(C(C)(C)C)[se]c3C(N)=O)c12 [Compound 19, 3-(5-ethyl-6-methylselenopheno[2,3-d]pyrimidin-4-ylamino)-5-tert-butylselenophene-2-carboxamide] | 7.86% | 6.68% | 43.9% | 
CSc1nc2ncnc(Nc3cc(C(C)(C)C)[se]c3C(N)=O)c2s1 [Compound 20, 3-(2-(methylthio)thiazolo[4,5-d]pyrimidin-7-ylamino)-5-tert-butylseleno-phene-2-carboxamide] |  |  |  | IC50 ([1]; MTT, three days incubation): 9.54 µM; Cell Proliferation Inhibition in A549 (Lung carcinoma), % at highest screening dose ([2]; at 10 μg/ml (highest dose tested in screening), micromolar equivalent printed in each cell, three days): 1.28% at 23.42 μM; IC50 ([3]; MTT, three days incubation): 17.9 µM
COc1cc2ncnc(N(C)c3cc(C(C)(C)C)[se]c3C(N)=O)c2cc1OCCCN1CCOCC1 [Compound 22, 3-(N-(6-(3-morpholinopropoxy)-7-methoxyquinazolin-4-yl)-N-methylamino)-5-tert-butylselenophene-2-carboxamide] | 3.93% | 14.7% | 34.3% | 
COc1cc2ncnc(N(CCCl)c3cc(C(C)(C)C)[se]c3C(N)=O)c2cc1OCCCN1CCOCC1 [Compound 23, 3-(N-(6-(3-morpholinopropoxy)-7-methoxyquinazolin-4-yl)-N-(2-chloroethyl)amino)-5-tert-butylselenophene-2-carboxamide] | 3.28% | 22.4% | 40.7% | 
COc1cc2nc(C)nc(Nc3cc(C(C)(C)C)[se]c3C(N)=O)c2cc1OC [Compound 24, 3-(6,7-dimethoxy-2-methylquinazolin-4-ylamino)-5-tert-butylselenophene-2-carboxamide] | 15.1% | 87.7% |  | IC50 ([1]; Homo sapiens, HT-29, 72 h): 10.6 µM
COC(=O)c1cc(Nc2nc(C)nc3cc(OC)c(OC)cc23)c(C)[se]1 [Compound 25, methyl 4-(6,7-dimethoxy-2-methylquinazolin-4-ylamino)-5-methylselenophene-2-carboxylate] | 2.95% | 2.59% | 11.8% | 
COc1cc2nc(C)nc(Nc3cc(C(C)(C)C)[se]c3C(N)=O)c2cc1OCCCN1CCOCC1 [Compound 26, 3-(6-(3-morpholinopropoxy)-7-methoxy-2-methylquinazolin-4-ylamino)-5-tert-butylselenophene-2-carboxamide] |  |  |  | IC50 ([1]; Homo sapiens, HT-29, 72 h): 4.28 µM; IC50 [2]: 11.7 µM; IC50 ([3]; Homo sapiens, DU-145, 72 h): 6.78 µM
